System: Bemisia tabaci (whitely) biotype B
Experiment: Leaf dip bioassay, mortality assay for insecticide compounds (Example 20)
Assay type: in vivo
Details: for LC50% a.i. (*): quantity of pure insecticide achieving 50% mortality; for resistance factor: relative to non-resistant insects
Method: The “leaf dip bioassay” used for testing the activity of insecticides against Bemisia tabaci (whitely) biotype B, was similar to that described by Cahill, M et al, Bull. Entomol. Res. 85, 181-187, 1995.
Cotton plants (Gossypium hirsutum L.) were grown without any exposure to the insecticides. The leaves were cut up into disc shapes and immersed in an aqueous solution of insecticide containing 0.01% of Agral then left to dry at 25° C.
Control leaves were immersed in Agral and distilled water only.
About 20 adult insects were placed onto the small discs of treated cotton leaf.
The insects were allowed to feed and maximum mortality was evaluated at 24 and 48 hours.
LC50% a.i. and LC99% a.i indicate the quantity of active ingredient (i.e pure insecticide) able to achieve mortality for 50% and 99% of the insects tested.

[1] = adults on treated cotton leaf discs, maximum mortality evaluated at 24 and 48 hours

Structure (SMILES)	LC50% a.i. (*) [1] [ppm]	resistance factor [times]	LC99% a.i. (*) (quantity of pure insecticide achieving 99% mortality, adults on treated cotton leaf discs, maximum mortality evaluated at 24 and 48 hours) [ppm]
O=[N+]([O-])NC1=NCCN1Cc1ccc(Cl)nc1 [Imidacloprid]	4.7	2336	
C/C(=N\C#N)N(C)Cc1ccc(Cl)nc1 [Acetamiprid]	0.00038	21	0.098

From patent US10149478B2, “Biologically active formulation” (Endura S.P.A., priority 2005, dated 2018)
